For 25 compounds, TGI and GI50 results are on record in PubChem BioAssay (NCI).

SMILES strings stand for the structures.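 Protocol summary: plate cells (96-well), add compound at 5 concentrations, incubate 48 h, interpolate endpoints linearly. Here, GI50 denotes the concentration required for 50% inhibition of growth. TGI: total growth inhibition.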 Where only a bound is given, the exact number is not on record here.

Assay in all cases: DTP human tumour cell line panel, 48 h
Assay [1] concerns EKVX NSCLC.
For assay [2], the system named is SNB-19 CNS.
Assay [3] concerns LOX IMVI melanoma.
In assay [4] the test system is SW-620 colon.
Assay [5] has as its system SF-295 CNS.
The subject of assay [6] is A498 renal.
Assay [7] relates to KM12 colon.
The test system of assay [8] is A549 NSCLC.
Assay [9] concerns U251 CNS.
Assay [10] concerns SF-539 CNS.

As for `COc1ccc2c(c1)CCCN2CCCCCCCCCCN(CCC(C)C)CCC(C)C`, the TGI in [1] came to 20 µM; in [2], 27.7 µM; in assay [3], 29.1 µM; in [4] it was 26.2 µM; in [5], 27.4 µM; in [6] it was 31 µM. The TGI in assay [7] was determined as 17.4 µM; in assay [8], 26.2 µM; in assay [9] it was 26.6 µM; in [10], 11.1 µM.

`COc1ccc2c(C(=O)c3cn(CCN4CCOCC4)c4ccccc34)cccc2c1`: the TGI was > 100 µM in assay [1]; > 100 µM in [2]; > 100 µM in assay [3]; > 100 µM in assay [4]; > 54.8 µM in assay [5]; > 100 µM in assay [6]. Besides, the TGI in [7], in assay [8], in assay [9] and in assay [10] was > 100 µM throughout.

`C[C@H]1C(=O)O[C@@H]2CCN3CC=C(COC(=O)[C@](C)(O)[C@@]1(C)O)[C@H]23`: the TGI in assay [1], in assay [2], in [3], in assay [4], in [5] and in assay [6] was > 100 µM in each case. The TGI in assay [7], in assay [8], in assay [9] and in assay [10] was > 100 µM throughout.

For the compound `CC(=O)NNc1nc(-c2ccc([N+](=O)[O-])cc2)c(C#N)c(=O)n1C`, the TGI in [1] is > 100 µM; in assay [2] it was > 100 µM; in [3], 41.3 µM; in assay [4], > 100 µM; in assay [5], > 100 µM; in assay [6], 75.5 µM. For the same compound, the TGI in assay [7] was > 100 µM; in assay [8] it was > 100 µM; in assay [9], 50 µM; in assay [10], 35.1 µM.

For the compound `CN(C)CCNC(=O)c1cccc2ccc(-c3ccc(F)cc3)nc12`, the TGI in assay [2] was found to be 33.7 µM; in [3] it was 9.88 µM; in assay [4], 21 µM; in assay [5] it was 19.7 µM; in [6], 17.5 µM; in assay [7] it was 33.4 µM. The TGI in [8] was 17.9 µM; in [9] it was 22.3 µM; in [10], 14.9 µM.

`Nc1ccccc1N=Cc1cc2cc([N+](=O)[O-])ccc2s1`: the TGI in [1] is 45.1 µM; in [2], 46.6 µM; in assay [3] it was 97.9 µM; in assay [4] it was > 100 µM; in assay [5], > 100 µM; in assay [6] it was 32.5 µM. Moreover, the TGI in assay [7] was > 100 µM; in assay [8] it was 30.9 µM; in [9], 28.2 µM; in assay [10], 27.4 µM.

With `COc1ccc(C2=C3SC=c4ccccc4=C3ON=C2c2ccccc2)cc1`, the TGI in assay [1], in assay [2], in [3], in assay [4], in [5] and in [6] was > 100 µM each time. In addition, the TGI in assay [7], in [8], in assay [9] and in assay [10] was > 100 µM each time.

Turning to `N=C1C(=N)c2ccccc2-c2ccccc21.N=C1C(=N)c2ccccc2-c2ccccc21.N=C1C(=N)c2ccccc2-c2ccccc21.[Cl-].[Ru+2]`, the TGI in assay [1] was 3.41 µM; in [2], 6.35 µM; in [3], 7.94 µM; in [4], 3.74 µM; in assay [5], 3.23 µM; in assay [7], > 68 µM. In addition, the results for the TGI in assay [8], in [9] and in assay [10] were > 27.9 µM, 3.08 µM and 3.27 µM, respectively.

Turning to `Nc1n[nH]c(=O)c2c1c(I)cn2C1OC(CO)C(O)C1O` (stereo not given), the TGI in [1] is 7.85 µM; in [2], > 100 µM; in assay [3], 10.6 µM; in assay [4], > 100 µM; in assay [5], 9.74 µM; in [6], > 100 µM. Further, the results for the TGI in [7], in assay [8] and in [9] were > 100 µM, > 100 µM and 4.19 µM, respectively.

Turning to `NCCc1cc(O)c(O)cc1O`, the TGI in [1] is 65.9 µM; in [2] it was > 100 µM; in [3] it was 40 µM; in assay [4] it was 40 µM; in assay [5], 49.3 µM; in [6], > 100 µM. The TGI was 58.5 µM in [7], > 100 µM in assay [8], 28.5 µM in assay [9] and 44.3 µM in [10]. The GI50 in assay [3] was 19.1 µM; in assay [9], 14 µM.

On to `O=C1NI(C#Cc2ccccc2)c2ccccc21`, for which the TGI in [2], in assay [3], in [4], in assay [5], in assay [6] and in [7] was > 100 µM in each case. The TGI in assay [8], in assay [9] and in assay [10] was > 100 µM each time.

As to `COc1cc(/C=C/C(=O)Oc2ccc(NC(C)=O)cc2)ccc1C(=O)O/C=C/c1ccccc1`, the TGI in assay [1], in assay [2], in assay [3], in assay [4], in assay [5] and in assay [6] was > 100 µM each time. Also, the TGI in assay [7], in assay [8], in assay [9] and in [10] was > 100 µM throughout.

In the case of `CN(C)CCCn1cnc2cc(Cl)c(Cl)cc21`, the TGI in [1], in [2], in assay [3], in [4], in [5] and in assay [6] was > 100 µM each time. Besides, the TGI in [7], in assay [8] and in assay [9] was > 100 µM each time.

Regarding `FC(F)(F)c1ccc2c(c1)nc(-c1ccc(Cl)cc1)n2CC1CCCN2CCCCC12` (stereo not given), the TGI was determined as 23.4 µM in assay [1]; 31.2 µM in assay [2]; 29.8 µM in assay [3]; 38.1 µM in assay [4]; 31.7 µM in [5]; 27.5 µM in [6]. The TGI in assay [7] was found to be 41.8 µM; in [8], 29.5 µM; in assay [9], 27.3 µM; in assay [10] it was 28.8 µM.

Turning to `CC(C)(C)[Si](C)(C)Oc1ccc(C2CNC(=O)C23CCC(=O)N3Cc2ccccc2)cc1` (stereo not given), the TGI stood at 22.4 µM in assay [1]; 29.5 µM in assay [2]; 41.2 µM in assay [3]; 31.1 µM in assay [4]; 30.6 µM in assay [5]; 25.1 µM in assay [6]. Besides, the TGI in assay [7] was > 100 µM; in [8], 33.2 µM; in assay [9], 36.2 µM; in assay [10], 30.7 µM.

Take `Oc1cn(-c2ccc(Cl)cc2)nc1-c1n[nH]c(=S)n1-c1ccccc1`: the TGI was 82.1 µM in assay [1]; > 100 µM in assay [2]; 20.4 µM in [4]; 19.8 µM in assay [5]; 37.5 µM in [6]; 31.8 µM in [7]. Also, the results for the TGI in assay [8], in assay [9] and in [10] were 35.6 µM, 30.4 µM and 23.1 µM, respectively.

Turning to `COC(C)(C)OCCN1CCN(CCN2C3=C(C=C(C(C)=O)C3)Sc3ccccc32)CC1`, the TGI was > 100 µM in assay [1]; 93.3 µM in assay [2]; 42.2 µM in assay [3]; 37.2 µM in [4]; 36.7 µM in [5]; 34 µM in assay [6]. The TGI in [7] turned out to be 32.6 µM; in assay [8], 96.7 µM; in [9], 35.2 µM; in assay [10], 39.8 µM.

`NCCCn1c2c(c3ccc([N+](=O)[O-])cc3c1=O)C(=O)c1ccccc1-2`: the GI50 is 0.317 µM in [1]; 0.0721 µM in [2]; 0.0173 µM in [3]; 0.0215 µM in assay [4]; 0.277 µM in assay [6]; 0.0892 µM in [7]. In addition, the GI50 in assay [8] is 0.0233 µM; in [9], 0.005 µM; in assay [10], 0.138 µM. The TGI in assay [1] was 1.69 µM; in [2] it was 7.05 µM; in assay [3], 0.225 µM; in assay [4], 1.24 µM; in assay [6], 1.45 µM; in assay [7], 1.23 µM. In addition, the TGI in assay [9] was found to be 0.0534 µM; in assay [10] it was 0.596 µM.

With `Cc1c2cccc-2c(OCCO)cc2c3ccccc3n(C)c12`, the TGI in assay [1] was determined as 8.69 µM; in [2], 18.6 µM; in assay [3], 8.15 µM; in assay [4], 67.3 µM; in assay [5] it was 16.9 µM; in [6], 24 µM. Moreover, the TGI in [7] came out at 12.9 µM; in assay [8] it was 15.5 µM; in [9], 5.84 µM; in [10] it was 5.92 µM.

Turning to `Cc1cc2c(cc1C(=O)c1ccc(N)cc1)OCO2`, the TGI in assay [1] is > 100 µM; in assay [2], > 100 µM; in assay [4] it was > 100 µM; in assay [5] it was 86 µM; in assay [7], > 100 µM; in assay [8], > 100 µM. The TGI in [9] was > 100 µM; in [10] it was 79.7 µM.

Turning to `COc1ccc(/C(Cl)=C(\C=O)c2ccc(OC)cc2)cc1`, the TGI in assay [1], in [2], in assay [3], in assay [4], in assay [5] and in assay [6] was > 100 µM each time. The TGI in assay [8], in [9] and in [10] was > 100 µM each time.

Consider `CCc1nc(N)nc(N)c1-c1ccc([N+](C)(C)C)cc1`, for which the TGI in assay [1], in assay [2], in assay [3], in assay [4], in assay [5] and in assay [6] was > 100 µM each time. Further, the TGI in assay [7], in [8], in assay [9] and in assay [10] was > 100 µM in each case.

`O=P1(c2ccccc2)Nc2ccccc2SSc2ccccc2N1`: the total growth inhibition concentration (TGI) in [1] turned out to be 33.4 µM; in assay [2], 30.3 µM; in assay [3], 35.1 µM; in assay [4], 33.7 µM; in [5], 30.3 µM; in [6] it was 41.2 µM. Moreover, the concentration for total growth inhibition (TGI) in [7] was found to be 30.4 µM; in assay [8], 46.1 µM; in assay [9], 30.4 µM; in assay [10] it was 34.3 µM.

Regarding `Cc1cc(/N=C/c2ccc(F)cc2)n(-c2ccccc2)n1`, the TGI in assay [1], in assay [2], in [3], in [4], in assay [5] and in assay [6] was > 100 µM throughout. Also, the TGI in assay [7], in assay [8], in assay [9] and in [10] was > 100 µM each time.

Regarding `CCOC(=O)c1c2c(n(Cc3ccccc3)c1C)C(=O)C(=O)c1ccccc1-2`, the TGI in [1] is 1.74 µM; in assay [3], 0.482 µM; in assay [4] it was 1.15 µM; in [5], 0.984 µM; in assay [6], 5.67 µM; in assay [7], 3.02 µM. For the same compound, the results for the TGI in [8], in assay [9] and in [10] were 1.35 µM, 2.03 µM and 0.521 µM, respectively. In assay [6], the GI50 is 2.84 µM.

By TGI is commonly meant the concentration at which net growth stops. A higher TGI goes with lower sensitivity of the cells. As usually defined, the GI50 is the concentration giving 50% growth inhibition.
